Laboratory results taken from US20060231107A1, “Antibody-targeted photodynamic therapy” (priority 2003, published 2006).

Legend:
[1] = system: MS-1 vascular endothelial cells; experiment: Binding kinetics: fluorescence intensity of labeled MS-1 cells in confocal micrographs; type: cell-based, murine; details: within the first 10 minutes of labeling (FIG. 7)
Description: FIG. 7 is a graph of fluorescence intensity of conjugate-labeled and VISUDYNE-labeled MS-1 vascular endothelial cells as a function of incubation time. The fluorescence intensity of confocal micrographs was determined with the “histogram” analysis tool of the ImagePro image processing software program (Media Cybernetics; Silver Springs, Md.). Intensity is expressed as the accumulated pixel counts in the image.
In order to provide a more quantitative comparison of the binding kinetics of the conjugate and the native VISUDYNE, the fluorescence intensity of the MS-1 cells labeled for varying durations was measured in a series of confocal micrographs using the “histogram” tool of ImagePro image processing program (Media Cybernetics; Silver Springs, Md.). […] Accordingly, if the laser activation were to be applied within 10 minutes of application of the conjugate, essentially maximum photodynamic effect would be realized. Targets not expressing the VEGF factor would not be as strongly labeled. This improved selectivity of the conjugate for VEGF-expressing targets is a distinct advantage over the native VISUDYNE.

[2] = system: VEGF-expressing, murine endothelial cells (MS-1 VEGF, ATCC); experiment: Photodynamic cell viability by trypan blue exclusion; type: cell-based; details: for cell viability (trypan blue exclusion) compared with Dulbecco's PBS controls: laser-exposed (647 nm, 56.5 J/cm), verteporfin 40 μg/ml, P<0.0001
Description: FIG. 3 is a graph showing the mean percent cell viability by trypan blue exclusion over eight experimental runs in 24-well culture plates for VEGF-expressing endothelial cells in Dulbecco's phosphate buffered saline (“DPBS”), cells incubated with verteporfin ([sequence]) at 40 μg/ml (“Verteporfin”), and cells incubated with verteporfin ([sequence]) conjugated to anti-VEGF antibody (“Conjugate”). Error bars indicate 1 standard deviation from the mean. The cells received either no laser treatment or were exposed to krypton-ion CW laser (647 nm) at a total light dosage of 56.5 J/cm for either 1 hour (left) or 24 hours (right).
Experiments were conducted in a line of cultured, VEGF-expressing, murine erdothelial cells (MS-1 VEGF, ATCC). Cells were grown in 24-well culture plates under standard cell culture conditions in Dulbecco's minimal essential medium (DMEM) with 10% fetal calf serum. Cells were incubated for one hour with either phosphate buffered saline solution alone, verteporfin at 40 μg/ml, or verteporfin-anti-VEGF antibody conjugate (FIG. 2A). All cells were washed twice with phosphate buffered saline following incubation to remove unbound photosensitizer. The photosensitizer was excited by exposing selected wells to the krypton-ion CW laser (647 nm) at a total light dosage of 56.5 J/cm, which is the recommended ophthalmic light dosage (FIG. 2A). For each treatment condition, there were laser-exposed and non-exposed groups. Following laser exposure, cells were incubated for either 1 or 24 hours, and cell viability was assessed using trypan blue exclusion.

Q: Which “binding to the target cells (fluorescence intensity)” value [1] does the source give for verteporfin here?
A: approximately 50 % of maximum binding

Q: And the “cell viability (trypan blue exclusion) compared with Dulbecco's PBS controls” value ([2]; 1 hour after laser)?
A: large losses of viability

Q: And the “cell viability (trypan blue exclusion) compared with Dulbecco's PBS controls” value ([2]; 24 hours after laser)?
A: large losses of viability

Q: And the “cell viability without laser exposure” value ([2]; no laser, possible toxicity or low-level activation by ambient light)?
A: reduced viability
